Columns and labels:
[1] = DRUGMATRIX: Calcium Channel Type L, Benzothiazepine radioligand binding (ligand: [3H] Diltiazem); assay type: cell membranes, Rattus norvegicus, Wistar, Brain, Membrane; settings: Not Active = under 50% inhibition at 10 µM
[2] = molecular target: T1, C-X-C chemokine receptor type 2 (Homo sapiens, UniProt P25025); assay type: cell membranes, Membrane; settings: cho-k1; note: in other assays of this panel Not Active means under 50% inhibition at 10 µM
T1 sequence (P25025 whole entry): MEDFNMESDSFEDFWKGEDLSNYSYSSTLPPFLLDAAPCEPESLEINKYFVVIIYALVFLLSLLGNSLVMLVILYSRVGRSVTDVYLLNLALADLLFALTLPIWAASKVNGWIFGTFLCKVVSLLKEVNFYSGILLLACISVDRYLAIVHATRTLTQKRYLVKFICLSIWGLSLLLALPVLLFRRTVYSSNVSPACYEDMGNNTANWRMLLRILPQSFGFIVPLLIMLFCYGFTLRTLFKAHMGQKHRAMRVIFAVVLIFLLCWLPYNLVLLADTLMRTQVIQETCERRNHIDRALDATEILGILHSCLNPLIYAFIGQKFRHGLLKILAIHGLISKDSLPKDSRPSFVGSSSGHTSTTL

[3] = molecular target: Sodium-dependent dopamine transporter (Homo sapiens, UniProt Q01959); test: DRUGMATRIX: Dopamine Transporter radioligand binding (ligand: [125I] RTI-55); assay type: cell membranes, CHO-K1, Membrane; settings: cho-k1; Not Active = under 50% inhibition at 10 µM
[4] = DRUGMATRIX: Glutamate, NMDA, Agonism radioligand binding (ligand: [3H] CGP-39653); assay type: cell membranes, Rattus norvegicus, Wistar, Cerebral cortex, Membrane; settings: Not Active = under 50% inhibition at 10 µM
[5] = DRUGMATRIX: Glutamate, NMDA, Phencyclidine radioligand binding (ligand: [3H] TCP); assay type: cell membranes, Rattus norvegicus, Wistar, Cerebral cortex, Membrane; settings: Not Active = under 50% inhibition at 10 µM
[6] = molecular target: T2, Leukotriene C4 synthase (Cavia porcellus, UniProt A6XA80); assay type: tissue-based, Lung;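 note: enzyme inhibition assay of leukotriene C4 synthase, using LTA4 as the substrate; in other assays of this panel Not Active means under 50% inhibition at 10 µM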
T2 sequence (A6XA80 whole entry): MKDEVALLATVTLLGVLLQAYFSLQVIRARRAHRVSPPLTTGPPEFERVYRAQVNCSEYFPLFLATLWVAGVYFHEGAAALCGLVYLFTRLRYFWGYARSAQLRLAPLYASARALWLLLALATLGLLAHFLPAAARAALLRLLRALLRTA

[7] = molecular target: T3, Muscarinic acetylcholine receptor M2 (Homo sapiens, UniProt P08172); assay type: cell membranes, CHO-K1, Membrane; settings: cho-k1; note: in other assays of this panel Not Active means under 50% inhibition at 10 µM
T3 sequence (P08172 whole entry): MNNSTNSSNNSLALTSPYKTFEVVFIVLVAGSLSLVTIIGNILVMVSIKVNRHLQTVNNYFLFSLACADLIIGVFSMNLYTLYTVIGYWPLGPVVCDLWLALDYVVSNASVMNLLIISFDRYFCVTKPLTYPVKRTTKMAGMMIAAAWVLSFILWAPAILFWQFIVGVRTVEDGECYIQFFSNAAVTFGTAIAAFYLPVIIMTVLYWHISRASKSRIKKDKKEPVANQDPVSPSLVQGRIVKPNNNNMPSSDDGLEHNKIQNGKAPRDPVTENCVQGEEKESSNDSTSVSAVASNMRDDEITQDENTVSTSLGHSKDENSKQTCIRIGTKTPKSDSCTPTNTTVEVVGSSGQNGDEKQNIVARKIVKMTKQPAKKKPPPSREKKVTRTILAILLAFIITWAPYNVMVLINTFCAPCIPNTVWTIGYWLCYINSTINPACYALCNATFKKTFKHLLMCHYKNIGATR

[8] = molecular target: Platelet-activating factor receptor (Homo sapiens, UniProt P25105); test: biochemical; assay type: tissue-based; settings: platelet; note: in other assays of this panel Not Active means under 50% inhibition at 10 µM
[9] = molecular target: Protein phosphatase 3 catalytic subunit alpha (Homo sapiens, UniProt Q08209); parameters: species or system Escherichia coli

Chain of Sodium-dependent dopamine transporter (Q01959 whole entry): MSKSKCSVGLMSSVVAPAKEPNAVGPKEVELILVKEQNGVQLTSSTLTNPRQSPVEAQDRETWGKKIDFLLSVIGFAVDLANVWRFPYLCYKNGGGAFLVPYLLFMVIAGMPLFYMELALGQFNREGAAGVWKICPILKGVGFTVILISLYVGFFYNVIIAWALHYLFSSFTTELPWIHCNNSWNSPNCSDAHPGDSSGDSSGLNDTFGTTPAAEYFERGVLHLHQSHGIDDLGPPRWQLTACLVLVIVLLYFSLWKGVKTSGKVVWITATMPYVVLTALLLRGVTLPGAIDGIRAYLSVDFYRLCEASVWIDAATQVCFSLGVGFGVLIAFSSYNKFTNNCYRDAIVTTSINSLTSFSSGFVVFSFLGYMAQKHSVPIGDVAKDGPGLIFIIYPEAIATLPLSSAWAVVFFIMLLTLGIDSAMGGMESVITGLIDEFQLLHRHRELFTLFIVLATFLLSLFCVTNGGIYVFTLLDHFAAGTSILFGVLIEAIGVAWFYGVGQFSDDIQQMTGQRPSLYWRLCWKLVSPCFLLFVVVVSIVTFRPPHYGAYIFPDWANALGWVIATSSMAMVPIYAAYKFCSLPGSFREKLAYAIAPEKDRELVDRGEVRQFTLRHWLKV
Chain of Platelet-activating factor receptor (P25105 whole entry): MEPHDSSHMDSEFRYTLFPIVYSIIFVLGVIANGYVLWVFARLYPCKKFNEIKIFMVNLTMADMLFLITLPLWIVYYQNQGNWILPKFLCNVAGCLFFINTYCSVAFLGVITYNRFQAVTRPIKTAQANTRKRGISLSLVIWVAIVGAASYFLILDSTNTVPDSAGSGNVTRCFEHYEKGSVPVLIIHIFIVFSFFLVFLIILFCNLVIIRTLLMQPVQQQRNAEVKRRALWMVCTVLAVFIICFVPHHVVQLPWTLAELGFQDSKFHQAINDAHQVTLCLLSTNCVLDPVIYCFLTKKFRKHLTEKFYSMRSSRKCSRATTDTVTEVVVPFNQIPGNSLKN

In the case of COc1ncnc(NS(=O)(=O)c2ccc(N)cc2)c1OC [SULFADOXINE], the IC50 [1] is reported as “Not Active”, the Ki [1] is reported as “Not Active” and the IC50 [2] is reported as “Not Active”. For the same molecule, the IC50 [3] was “Not Active”, the IC50 [4] was “Not Active” and the Ki [4] was “Not Active”. For the same molecule, the IC50 [5] was “Not Active”, the Ki [5] was “Not Active” and the IC50 [6] was “Not Active”. The IC50 [7] was “Not Active”, the IC50 [8] was “Not Active” and the IC50 [9] was “Not Active”.
In the case of Nc1ccc(S(=O)(=O)Nc2nccs2)cc1 [SULFATHIAZOLE], the IC50 [1] is reported as “Not Active”, the Ki [1] is reported as “Not Active” and the IC50 [2] is reported as “Not Active”. For the same molecule, the IC50 [3] was “Not Active”, the IC50 [4] was “Not Active” and the Ki [4] was “Not Active”. The IC50 [5] was “Not Active”, the Ki [5] was “Not Active” and the IC50 [6] was “Not Active”. The IC50 [7] was “Not Active”, the IC50 [8] was “Not Active” and the IC50 [9] was “Not Active”.
In the case of C[C@]12CC[C@H]3[C@@H](CCC4=CC(=O)CC[C@@]43C)[C@@H]1CC[C@@H]2O [TESTOSTERONE], the IC50 [1] is reported as “Not Active”, the Ki [1] is reported as “Not Active” and the IC50 [2] is reported as “Not Active”. The IC50 [3] was “Not Active”, the IC50 [4] was “Not Active” and the Ki [4] was “Not Active”. For the same molecule, the IC50 [5] was “Not Active”, the Ki [5] was “Not Active” and the IC50 [6] was “Not Active”. For the same molecule, the IC50 [7] was “Not Active”, the IC50 [8] was “Not Active” and the IC50 [9] was “Not Active”.
For CC(C)(C)NC[C@H](O)COc1nsnc1N1CCOCC1 [TIMOLOL], the IC50 [1] was “Not Active”, the Ki [1] was “Not Active” and the IC50 [2] was “Not Active”. For the same molecule, the IC50 [3] was “Not Active”, the IC50 [4] was “Not Active” and the Ki [4] was “Not Active”. For the same molecule, the IC50 [5] was “Not Active”, the Ki [5] was “Not Active” and the IC50 [6] was “Not Active”. For the same molecule, the IC50 [7] was “Not Active”, the IC50 [8] was “Not Active” and the IC50 [9] was “Not Active”.
In the case of CCS(=O)(=O)CCn1c([N+](=O)[O-])cnc1C [TINIDAZOLE], the IC50 [1] is reported as “Not Active”, the Ki [1] is reported as “Not Active” and the IC50 [2] is reported as “Not Active”. For the same molecule, the IC50 [3] was “Not Active”, the IC50 [4] was “Not Active” and the Ki [4] was “Not Active”. The IC50 [5] was “Not Active”, the Ki [5] was “Not Active” and the IC50 [6] was “Not Active”. The IC50 [7] was “Not Active”, the IC50 [8] was “Not Active” and the IC50 [9] was “Not Active”.
In the case of C[C@@H]1C[C@H]2[C@@H]3CCC4=CC(=O)C=C[C@]4(C)C3=CC[C@]2(C)[C@H]1C(=O)CN1CCN(c2cc(N3CCCC3)nc(N3CCCC3)n2)CC1 [TIRILAZAD], the IC50 ([1]; read-out: IC50) is reported as 2.69 µM, the Ki ([1]; read-out: Ki) is reported as 2.4 µM and the IC50 [2] is reported as “Not Active”. For the same molecule, the IC50 [3] was “Not Active”, the IC50 [4] was “Not Active” and the Ki [4] was “Not Active”. For the same molecule, the IC50 [5] was “Not Active”, the Ki [5] was “Not Active” and the IC50 [6] was “Not Active”. For the same molecule, the IC50 [7] was “Not Active”, the IC50 [8] was “Not Active” and the IC50 [9] was “Not Active”.
For NC[C@H]1O[C@H](O[C@H]2[C@H](O)[C@@H](O[C@H]3O[C@H](CO)[C@@H](O)[C@H](N)[C@H]3O)[C@H](N)C[C@@H]2N)[C@H](N)C[C@@H]1O [TOBRAMYCIN], the IC50 [1] was “Not Active”, the Ki [1] was “Not Active” and the IC50 [2] was “Not Active”. For the same molecule, the IC50 [3] was “Not Active”, the IC50 [4] was “Not Active” and the Ki [4] was “Not Active”. For the same molecule, the IC50 [5] was “Not Active”, the Ki [5] was “Not Active” and the IC50 [6] was “Not Active”. The IC50 [7] was “Not Active”, the IC50 [8] was “Not Active” and the IC50 [9] was “Not Active”.
With O=C(O)C(Cl)(Cl)Cl [TRICHLOROACETIC ACID] the IC50 [1] was “Not Active”, the Ki [1] was “Not Active” and the IC50 [2] was “Not Active”. For the same molecule, the IC50 [3] was “Not Active”, the IC50 [4] was “Not Active” and the Ki [4] was “Not Active”. For the same molecule, the IC50 [5] was “Not Active”, the Ki [5] was “Not Active” and the IC50 [6] was “Not Active”. For the same molecule, the IC50 [7] was “Not Active”, the IC50 [8] was “Not Active” and the IC50 [9] was “Not Active”.
In the case of COc1ccc(CN2CCNCC2)c(OC)c1OC [TRIMETAZIDINE], the IC50 [1] is reported as “Not Active”, the Ki [1] is reported as “Not Active” and the IC50 [2] is reported as “Not Active”. The IC50 [3] was “Not Active”, the IC50 [4] was “Not Active” and the Ki [4] was “Not Active”. For the same molecule, the IC50 [5] was “Not Active”, the Ki [5] was “Not Active” and the IC50 [6] was “Not Active”. The IC50 [7] was “Not Active”, the IC50 [8] was “Not Active” and the IC50 [9] was “Not Active”.
In the case of CC(=O)O[C@H]1C[C@@H]2CC[C@@H]3[C@H](CC[C@@]4(C)[C@H]3C[C@H]([N+]3(C)CCCCC3)[C@@H]4OC(C)=O)[C@@]2(C)C[C@@H]1N1CCCCC1.[Br-] [VECURONIUM BROMIDE], the IC50 [1] is reported as “Not Active”, the Ki [1] is reported as “Not Active” and the IC50 [2] is reported as “Not Active”. For the same molecule, the IC50 [3] was “Not Active”, the IC50 [4] was “Not Active” and the Ki [4] was “Not Active”. For the same molecule, the IC50 [5] was “Not Active”, the Ki [5] was “Not Active” and the IC50 [6] was “Not Active”. For the same molecule, the IC50 [7] was “Not Active”, the IC50 [8] was “Not Active” and the IC50 [9] was “Not Active”.
In the case of COc1cc(C(=O)NS(=O)(=O)c2ccccc2C)ccc1Cc1cn(C)c2ccc(NC(=O)OC3CCCC3)cc12 [ZAFIRLUKAST], the IC50 [1] is reported as “Not Active”, the Ki [1] is reported as “Not Active” and the IC50 [2] is reported as “Not Active”. The IC50 [3] was “Not Active”, the IC50 [4] was “Not Active” and the Ki [4] was “Not Active”. The IC50 [5] was “Not Active”, the Ki [5] was “Not Active” and the IC50 [6] was “Not Active”. For the same molecule, the IC50 [7] was “Not Active”, the IC50 [8] was “Not Active” and the IC50 [9] was “Not Active”.
With Cc1cn([C@H]2C[C@H](N=[N+]=[N-])[C@@H](CO)O2)c(=O)[nH]c1=O [ZIDOVUDINE] the IC50 [1] was “Not Active”, the Ki [1] was “Not Active” and the IC50 [2] was “Not Active”. For the same molecule, the IC50 [3] was “Not Active”, the IC50 [4] was “Not Active” and the Ki [4] was “Not Active”. For the same molecule, the IC50 [5] was “Not Active”, the Ki [5] was “Not Active” and the IC50 [6] was “Not Active”. The IC50 [7] was “Not Active”, the IC50 [8] was “Not Active” and the IC50 [9] was “Not Active”.
For STANNOUS FLUORIDE, the IC50 [1] was “Not Active”, the Ki [1] was “Not Active” and the IC50 [2] was “Not Active”. For the same molecule, the Ki [2] was “Not Active”, the IC50 [3] was “Not Active” and the Ki [3] was “Not Active”. The IC50 [4] was “Not Active”, the Ki [4] was “Not Active” and the IC50 [5] was “Not Active”. The Ki [5] was “Not Active”, the IC50 [6] was “Not Active” and the Ki [6] was “Not Active”. The IC50 [7] was “Not Active”, the Ki [7] was “Not Active” and the IC50 [8] was “Not Active”. The Ki [8] was “Not Active”, the IC50 [9] was “Not Active” and the Ki [9] was “Not Active”.
For THIMEROSAL, the IC50 [1] was “Not Active”, the Ki [1] was “Not Active” and the IC50 [2] was “Not Active”. The Ki [2] was “Not Active”, the IC50 [3] was “Not Active” and the Ki [3] was “Not Active”. The IC50 [4] was “Not Active”, the Ki [4] was “Not Active” and the IC50 [5] was “Not Active”. The Ki [5] was “Not Active”, the IC50 [6] was “Not Active” and the Ki [6] was “Not Active”. For the same molecule, the IC50 [7] was “Not Active”, the Ki [7] was “Not Active” and the IC50 [8] was “Not Active”. For the same molecule, the Ki [8] was “Not Active”, the IC50 [9] was “Not Active” and the Ki [9] was “Not Active”.

Reference: ChEMBL document CHEMBL1909046, “DrugMatrix in vitro pharmacology data”
